Common to all, as to assay type: cell-based, human
The test system of experiment [1] is HCAEC. The experiment is described as follows: HCAEC cell binding assay to immobilized fibronectin polypeptides (crystal violet). As to conditions: immobilized peptide, 8 h, on average. As to the method:
Human coronary artery endothelial cell (HCAEC) and human umbilical vein endothelial cell (HUVEC) primary human cells were obtained (Cambrex Corporation, East Rutherford, N.J.) and maintained according to the manufacturer's instructions at 37° C. and 5% CO2. HCAEC were grown in microvascular endothelial cell medium (EBM-2 MV, Cambrex) supplemented with 5% fetal bovine serum, 0.1% human epidermal growth factor, 0.04% hydrocortisone, 0.1% vascular endothelial growth factor, 0.4% human fibroblast growth factor-B, 0.1% R^3-insulin-like growth factor-1, 0.1% ascorbic acid, and 0.1% gentamicin and amphotericin-B (GA-1000). HUVEC were grown in endothelial cell medium (EBM, Cambrex) supplemented with 2% fetal bovine serum, 0.4% bovine brain extract, 0.1% human epidermal growth factor, 0.1% hydrocortisone, and 0.1% gentamicin and amphotericin-B (GA-1000). HCAEC and HUVEC were subcultured at 90-95% confluence using 0.05% trypsin-EDTA (Invitrogen, Carlsbad, Calif.) and used for experiments between passages 3-7 (HUVEC) or 5-11 (HCAEC).
HCAEC or HUVEC cell binding assays to immobilized recombinant fibronectin polypeptides were performed in order to ascertain which polypeptide(s) maximally support(s) alpha-4 integrin-mediated cell adhesion. Connecting Segment-1 (SEQ ID NO:1), EILDV (SEQ ID NO:2), RGDS (SEQ ID NO:3) (positive control), RGES (SEQ ID NO:4) (negative control), and EILEVPST (SEQ ID NO:5) (negative control) and were immobilized by drying overnight at room temperature in Immobilizer™ Amino 96-well microplates (Nalge Nunc International, Rochester, N.Y.). RGES, EILDV, and EILEVPST were incubated at a molar equivalent concentration equal to 200 μg RGDS per well. CS-1 was incubated at 50 μg/well. On a molar basis per well, this equates to approximately twenty-fold less CS-1 relative to RGDS. […] Cells were manually counted, and their concentration adjusted to yield a total cell population of 5×10^4 cells/well. […] Spectrometric absorbance values were read at 562 nm at room temperature using a ThermoMax microplate reader (Molecular Devices Corporation, Sunnyvale, Calif.).

Experiment [2] deals with HCAEC. As to the kind of experiment: alpha-4 integrin function blocking cell binding assay, HCAEC. The following applies: 0.5 μg antibody per 5×10^4 cells, 8 h; CS-1 p<0.05. As to the method: To verify that HCAEC or HUVEC adhesion to immobilized CS-1 polypeptides is specifically mediated via alpha-4-containing integrin heterodimers, alpha-4 integrin function blocking cell binding assays were performed. RGDS, EILEVPST, and CS-1 polypeptides were immobilized in Immobilizer™ Amino 96-well microplates. Microplate wells were prepared as described above. Trypsinized HCAEC or HUVEC suspensions were manually counted, aliquoted into two groups, and incubated for one hour on ice with one of the following antibodies at a concentration of 0.5 μg antibody per 5×10^4 cells: (a) mouse monoclonal IgG1 anti-human alpha-4-integrin (CD49d, clone P1H4) (Chemicon), or (b) mouse monoclonal IgG1 anti-human isotype-matched control (R&D Systems). Next, 5×10^4 cells suspended in their respective basal medium were added to wells containing immobilized peptide polypeptides and incubated for eight hours at 37° C. and a 5% CO2 atmosphere. Adherent cells were analyzed via crystal violet staining as described previously.
To differentiate whether HCAEC and HUVEC adhere to CS-1 peptides via an alpha-4 integrin-specific interaction, HCAEC and HUVEC adhesion assays to CS-1, RGDS, and EILEVPST peptides were performed following one hour endothelial cell incubations with either an alpha-4 integrin function blocking antibody or an IgG isotype-matched control antibody. The EILEVPST peptide served as the negative control cell adhesion peptide. The RGDS peptide served as an additional control. Endothelial cell adhesion to RGDS is primarily mediated by alpha-5-beta-1 integrins. Therefore, alpha-4 integrin function blocking should not have a significant effect on adhesion to RGDS. Thus, specificity of HCAEC and HUVEC binding to CS-1 via alpha-4 integrins could be tested.

For experiment [3], the system named is HCAEC. The experiment is described as follows: HCAEC spreading on coated glass slides, static. As to conditions: 5 μg/cm^2 coating, two hours, p<0.0001. How it is done: (§1) 22×25×1 mm glass slides (Electron Microscopy Sciences, Hatfield, Pa.) were washed sequentially in 100% acetone, ethanol and HCl (2:1), and deionized and Milli-Q H2O, followed by autoclave sterilization. Slides were coated with one of the following PBS-solubilized extracellular matrix proteins at 5 μg/cm^2: (a) human type I collagen (Sigma), (b) human plasma fibronectin (Chemicon), or (c) CS-1 peptide (American Peptide Company). All coated slides were dried overnight at room temperature, rinsed with PBS, and blocked with a 0.01% (w/v) heat-inactivated BSA-solution at room temperature for one hour. HCAEC or HUVEC were seeded onto the slides in basal medium at 1×10^4 cells/cm^2 and permitted to attach and spread for two hours at 37° C. Cells were fixed with 4% (w/v) paraformaldehyde and co-stained for fluorescence microscopic analysis using Texas Red®-X phalloidin (Molecular Probes, Eugene, Oreg.) and DAPI (EMB Chemicals, Inc., San Diego, Calif.). Fluorescence micrographs were captured through a 10× objective on a Nikon Diaphot 200 inverted epifluorescence microscope (Nikon, Inc., Melville, N.Y.) using an Olympus DP70 digital camera (Olympus America, Inc., Melville, N.Y.). Image Tool software package version 3.0 (University of Texas Health Science Center, San Antonio, Tex.) was used to quantify endothelial cell surface area.

The next experiment deals with HUVEC. The experiment is described as follows: HUVEC spreading on coated glass slides, static. As to conditions: 5 μg/cm^2 coating, two hours, p<0.01. As to the method: as §1

On to “CS-1: full-length 25 amino acid polypeptide, first 25 amino acid sequence of the fibronectin type IIICS domain (DELPQLVTLPHPNLHGPEILDVPST; Homo sapien)”, for which the “more of the total HCAEC population adhered relative to RGES” value in the experiment with HCAEC [1] is “about 20%”. The “difference in HCAEC adhesion between IgG isotype control and alpha-4 integrin blocking antibody treated cells” value in the experiment with HCAEC [2] is on record as “A statistical difference was achieved”. Moreover, the “HCAEC spread area relative to the non-ECM-coated control substrate” value in the experiment with HCAEC [3] was “statistically significant increase”. Further, the “HUVEC spread area relative to the non-ECM-coated control substrate” value in the experiment on HUVEC was “statistically significant increase”.

Values taken from patent US20100008965A1, “BIOCOMPATIBLE MEDICAL PRODUCTS HAVING ENHANCED ANTI-THROMBOGENIC PROPERTIES” (priority 2008, published 2010).
